# Data from article PMC9545868, “Structure‐Based Demystification of Radical Catalysis by a Coenzyme B12 Dependent Enzyme—Crystallographic Study of Glutamate Mutase with Cofactor Homologues” (Angewandte Chemie (International Ed. in English), 2022).
# Molecular target: T1, glutamate mutase (GM) (Clostridium cochlearium, UniProt P80077+P80078)
# T1 construct: gene glmE; hetero-tetramer of two epsilon and two sigma subunits; construct details only in the supplement
# T1 sequence (P80077 1-483): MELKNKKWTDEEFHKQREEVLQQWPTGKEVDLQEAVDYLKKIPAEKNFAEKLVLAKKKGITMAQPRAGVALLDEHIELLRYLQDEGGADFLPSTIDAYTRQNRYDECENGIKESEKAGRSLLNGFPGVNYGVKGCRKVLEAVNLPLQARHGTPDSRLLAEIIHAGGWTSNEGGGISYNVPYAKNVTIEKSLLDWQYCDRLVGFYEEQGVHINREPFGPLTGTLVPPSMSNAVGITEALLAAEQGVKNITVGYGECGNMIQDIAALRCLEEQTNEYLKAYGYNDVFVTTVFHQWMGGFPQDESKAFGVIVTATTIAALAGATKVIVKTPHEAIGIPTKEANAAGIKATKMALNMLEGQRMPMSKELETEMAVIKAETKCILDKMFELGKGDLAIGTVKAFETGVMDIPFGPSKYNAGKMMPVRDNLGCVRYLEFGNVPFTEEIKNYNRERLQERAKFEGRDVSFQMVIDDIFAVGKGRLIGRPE
# T1 sequence (P80078 1-137): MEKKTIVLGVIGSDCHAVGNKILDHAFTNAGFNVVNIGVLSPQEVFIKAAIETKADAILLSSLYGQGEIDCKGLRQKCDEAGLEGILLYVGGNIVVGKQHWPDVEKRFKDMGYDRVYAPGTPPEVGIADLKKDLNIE
# Experiment: X-ray crystal structures, […] and […] Å
# Type: binding
# Conditions: pseudo-substrate in the substrate site of the epsilon subunit (arginine claw R66, R100, R149); with AdoMeCbl or AdoEtCbl bound
structure (smiles),measurement,value
"O=C(O)[C@@H](O)[C@H](O)C(=O)O [(S,S)‐tartrate]","X-ray crystal structures, 1.8 and 2.1 Å","strong polar binding interactions with the carboxylate groups of an (S,S)‐tartrate ion"
